Key:
barnyardgrass [1] = experiment: Test A pre-/postemergence herbicide test; format: in vivo, Echinochloa crus-galli
How it was run: (§1)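 Formulated compound (non-phytotoxic solvent, surfactant) sprayed pre- onto soil of seeded loam/sand pots or post- onto seedlings at 1–2 leaves; ~10 d greenhouse; 0–100 visual control rating versus untreated.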

kochia = experiment: Test A pre-/postemergence herbicide test; format: in vivo, Kochia scoparia; conditions: for Plant response rating, Kochia: 0 to 100 scale
How it was run: as §1

ragweed = experiment: Test A pre-/postemergence herbicide test; format: in vivo, Ambrosia elatior; conditions: for Plant response rating, Ragweed: 0 to 100 scale
How it was run: as §1

ryegrass, Italian = experiment: Test A pre-/postemergence herbicide test; format: in vivo, Lolium multiflorum; conditions: for Plant response rating, Ryegrass, Italian: 0 to 100 scale
How it was run: as §1

giant foxtail = experiment: Test A pre-/postemergence herbicide test; format: in vivo, Setaria faberii; conditions: for Plant response rating, Foxtail, Giant: 0 to 100 scale
How it was run: as §1

pigweed = experiment: Test A pre-/postemergence herbicide test; format: in vivo, Amaranthus retroflexus; conditions: for Plant response rating, Pigweed: 0 to 100 scale
How it was run: as §1

wheat = experiment: Test A pre-/postemergence herbicide test; format: in vivo, Triticum aestivum; conditions: Postemergence; for Plant response rating, Wheat: 125 g ai/ha, 0 to 100 scale, 0 no effect, 100 complete control; for Wheat plant response rating (0 to 100 scale, 0 is no effect, 100 is complete control): 500 g ai/ha
How it was run: as §1

corn = experiment: Test A pre-/postemergence herbicide test; format: in vivo, Zea mays; conditions: Postemergence; for Plant response rating, Corn: 125 g ai/ha, 0 to 100 scale, 0 no effect, 100 complete control; for Corn plant response rating (0 to 100 scale, 0 is no effect, 100 is complete control): 500 g ai/ha
How it was run: as §1

blackgrass = experiment: Test A postemergence herbicide test; format: in vivo, Alopecurus myosuroides; conditions: for Plant response rating, Blackgrass: 125 g ai/ha, 0 to 100 scale, 0 no effect, 100 complete control; for Blackgrass plant response rating (0 to 100 scale, 0 is no effect, 100 is complete control): 500 g ai/ha
How it was run: (§2)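 Blackgrass and galium grown in pots of loam soil–sand blend, treated postemergence at 2–10 cm height, one- to two-leaf stage. Plants kept in greenhouse ~10 days, then visually rated for injury against untreated controls on a 0–100 scale (0 no effect, 100 complete control).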

galium = experiment: Test A postemergence herbicide test; format: in vivo, Galium aparine; conditions: for Plant response rating, Galium: 125 g ai/ha, 0 to 100 scale, 0 no effect, 100 complete control; for Galium plant response rating (0 to 100 scale, 0 is no effect, 100 is complete control): 500 g ai/ha
How it was run: as §2

rice = experiment: Test B flooded paddy test; format: in vivo, Oryza sativa; conditions: 500 g ai/ha, Flood; scale of 0 to 100 where 0 is no effect and 100 is complete control
How it was run: (§3)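 Treatment was made at the 2-leaf stage by dosing the standing floodwater, kept 3 cm above soil level for the whole test. Greenhouse exposure lasted 13 to 15 days. Response is a visual percent rating relative to controls, where a dash indicates no test result.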

sedge, umbrella = experiment: Test B flooded paddy test; format: in vivo, Cyperus difformis; conditions: 500 g ai/ha, Flood; scale of 0 to 100 where 0 is no effect and 100 is complete control
How it was run: as §3

ducksalad = experiment: Test B flooded paddy test; format: in vivo, Heteranthera limosa; conditions: 500 g ai/ha, Flood; scale of 0 to 100 where 0 is no effect and 100 is complete control
How it was run: as §3

barnyardgrass [2] = experiment: Test B flooded paddy test; format: in vivo, Echinochloa crus-galli; conditions: 500 g ai/ha, Flood; scale of 0 to 100 where 0 is no effect and 100 is complete control
How it was run: as §3

[3] = 125 g ai/ha, visual rating, 0 to 100 scale, 0 no effect, 100 complete control, approximately 10 days, preemergence
[4] = Postemergence, 125 g ai/ha, 0 to 100 scale, 0 no effect, 100 complete control
[5] = preemergence, 500 g ai/ha, 0 to 100 scale (0 no effect, 100 complete control)
[6] = 125 g ai/ha, visual rating, 0 no effect, 100 complete control, approximately 10 days, preemergence
[7] = Postemergence, 125 g ai/ha, 0 no effect, 100 complete control

Cc1ccc(C2CNC(=O)C2C(=O)Nc2cccc(F)c2F)cc1F (racemic) [Compound 146]
Plant response rating, Barnyardgrass (barnyardgrass [1]; [3]): 90 | Plant response rating, Barnyardgrass (barnyardgrass [1]; [4]): 90 | Barnyardgrass plant response rating (0 to 100 scale, 0 is no effect, 100 is complete control) (barnyardgrass [1]; Postemergence, 500 g ai/ha): 90 | Plant response rating, Barnyardgrass (barnyardgrass [1]; [5]): 90 | Plant response rating, Kochia (kochia; [6]): 0 | Plant response rating, Kochia (kochia; [7]): 0 | Kochia plant response rating (0 to 100 scale, 0 is no effect, 100 is complete control) (kochia; Postemergence, 500 g ai/ha): 70 | Plant response rating, Kochia (kochia; preemergence, 500 g ai/ha): 30 | Plant response rating, Ragweed (ragweed; [6]): 0 | Plant response rating, Ragweed (ragweed; [7]): 0 | Ragweed plant response rating (0 to 100 scale, 0 is no effect, 100 is complete control) (ragweed; Postemergence, 500 g ai/ha): 60 | Plant response rating, Ragweed (ragweed; preemergence, 500 g ai/ha): 30 | Plant response rating, Ryegrass, Italian (ryegrass, Italian; [6]): 0 | Plant response rating, Ryegrass, Italian (ryegrass, Italian; [7]): 20 | Ryegrass, Italian plant response rating (0 to 100 scale, 0 is no effect, 100 is complete control) (ryegrass, Italian; Postemergence, 500 g ai/ha): 60 | Plant response rating, Ryegrass, Italian (ryegrass, Italian; preemergence, 500 g ai/ha): 40 | Plant response rating, Foxtail, Giant (giant foxtail; [6]): 80 | Plant response rating, Foxtail, Giant (giant foxtail; [7]): 0 | Foxtail, Giant plant response rating (0 to 100 scale, 0 is no effect, 100 is complete control) (giant foxtail; Postemergence, 500 g ai/ha): 70 | Plant response rating, Foxtail, Giant (giant foxtail; preemergence, 500 g ai/ha): 90 | Plant response rating, Pigweed (pigweed; [6]): 0 | Plant response rating, Pigweed (pigweed; [7]): 0 | Pigweed plant response rating (0 to 100 scale, 0 is no effect, 100 is complete control) (pigweed; Postemergence, 500 g ai/ha): 0 | Plant response rating, Pigweed (pigweed; preemergence, 500 g ai/ha): 0 | Plant response rating, Wheat (wheat): 0 | Wheat plant response rating (0 to 100 scale, 0 is no effect, 100 is complete control) (wheat): 70 | Plant response rating, Corn (corn): 0 | Corn plant response rating (0 to 100 scale, 0 is no effect, 100 is complete control) (corn): 50 | Plant response rating, Blackgrass (blackgrass): 30 | Blackgrass plant response rating (0 to 100 scale, 0 is no effect, 100 is complete control) (blackgrass): 70 | Plant response rating, Galium (galium): 40 | Galium plant response rating (0 to 100 scale, 0 is no effect, 100 is complete control) (galium): 70 | Plant response rating, Rice (rice): 0 | Plant response rating, Sedge, Umbrella (sedge, umbrella): 0 | Plant response rating, Ducksalad (ducksalad): 100 | Plant response rating, Barnyardgrass (barnyardgrass [2]): 80

Cc1ccc(C2CNC(=O)C2C(=O)Nc2ccc(F)c(F)c2F)cc1F (racemic) [Compound 147]
Plant response rating, Barnyardgrass (barnyardgrass [1]; [3]): 90 | Plant response rating, Barnyardgrass (barnyardgrass [1]; [4]): 90 | Barnyardgrass plant response rating (0 to 100 scale, 0 is no effect, 100 is complete control) (barnyardgrass [1]; Postemergence, 500 g ai/ha): 90 | Plant response rating, Barnyardgrass (barnyardgrass [1]; [5]): 90 | Plant response rating, Kochia (kochia; [6]): 30 | Plant response rating, Kochia (kochia; [7]): 40 | Kochia plant response rating (0 to 100 scale, 0 is no effect, 100 is complete control) (kochia; Postemergence, 500 g ai/ha): 60 | Plant response rating, Kochia (kochia; preemergence, 500 g ai/ha): 80 | Plant response rating, Ragweed (ragweed; [6]): 0 | Plant response rating, Ragweed (ragweed; [7]): 0 | Ragweed plant response rating (0 to 100 scale, 0 is no effect, 100 is complete control) (ragweed; Postemergence, 500 g ai/ha): 50 | Plant response rating, Ragweed (ragweed; preemergence, 500 g ai/ha): 50 | Plant response rating, Ryegrass, Italian (ryegrass, Italian; [6]): 0 | Plant response rating, Ryegrass, Italian (ryegrass, Italian; [7]): 20 | Ryegrass, Italian plant response rating (0 to 100 scale, 0 is no effect, 100 is complete control) (ryegrass, Italian; Postemergence, 500 g ai/ha): 50 | Plant response rating, Ryegrass, Italian (ryegrass, Italian; preemergence, 500 g ai/ha): 40 | Plant response rating, Foxtail, Giant (giant foxtail; [6]): 80 | Plant response rating, Foxtail, Giant (giant foxtail; [7]): 40 | Foxtail, Giant plant response rating (0 to 100 scale, 0 is no effect, 100 is complete control) (giant foxtail; Postemergence, 500 g ai/ha): 70 | Plant response rating, Foxtail, Giant (giant foxtail; preemergence, 500 g ai/ha): 90 | Plant response rating, Pigweed (pigweed; [6]): 0 | Plant response rating, Pigweed (pigweed; [7]): 0 | Pigweed plant response rating (0 to 100 scale, 0 is no effect, 100 is complete control) (pigweed; Postemergence, 500 g ai/ha): 10 | Plant response rating, Pigweed (pigweed; preemergence, 500 g ai/ha): 0 | Plant response rating, Wheat (wheat): 0 | Wheat plant response rating (0 to 100 scale, 0 is no effect, 100 is complete control) (wheat): 40 | Plant response rating, Corn (corn): 0 | Corn plant response rating (0 to 100 scale, 0 is no effect, 100 is complete control) (corn): 50 | Plant response rating, Blackgrass (blackgrass): 40 | Blackgrass plant response rating (0 to 100 scale, 0 is no effect, 100 is complete control) (blackgrass): 60 | Plant response rating, Galium (galium): 50 | Galium plant response rating (0 to 100 scale, 0 is no effect, 100 is complete control) (galium): 60 | Plant response rating, Rice (rice): 0 | Plant response rating, Sedge, Umbrella (sedge, umbrella): 0 | Plant response rating, Ducksalad (ducksalad): 100 | Plant response rating, Barnyardgrass (barnyardgrass [2]): 70

Cc1ccc(C2CNC(=O)C2C(=O)Nc2ccc(F)cc2F)cc1 (racemic) [Compound 150]
Plant response rating, Barnyardgrass (barnyardgrass [1]; [3]): 80 | Plant response rating, Barnyardgrass (barnyardgrass [1]; [4]): 80 | Barnyardgrass plant response rating (0 to 100 scale, 0 is no effect, 100 is complete control) (barnyardgrass [1]; Postemergence, 500 g ai/ha): 80 | Plant response rating, Barnyardgrass (barnyardgrass [1]; [5]): 90 | Plant response rating, Kochia (kochia; [6]): 60 | Plant response rating, Kochia (kochia; [7]): 30 | Kochia plant response rating (0 to 100 scale, 0 is no effect, 100 is complete control) (kochia; Postemergence, 500 g ai/ha): 60 | Plant response rating, Kochia (kochia; preemergence, 500 g ai/ha): 90 | Plant response rating, Ragweed (ragweed; [6]): 0 | Plant response rating, Ragweed (ragweed; [7]): 0 | Ragweed plant response rating (0 to 100 scale, 0 is no effect, 100 is complete control) (ragweed; Postemergence, 500 g ai/ha): 20 | Plant response rating, Ragweed (ragweed; preemergence, 500 g ai/ha): 50 | Plant response rating, Ryegrass, Italian (ryegrass, Italian; [6]): 0 | Plant response rating, Ryegrass, Italian (ryegrass, Italian; [7]): 0 | Ryegrass, Italian plant response rating (0 to 100 scale, 0 is no effect, 100 is complete control) (ryegrass, Italian; Postemergence, 500 g ai/ha): 0 | Plant response rating, Ryegrass, Italian (ryegrass, Italian; preemergence, 500 g ai/ha): 50 | Plant response rating, Foxtail, Giant (giant foxtail; [6]): 70 | Plant response rating, Foxtail, Giant (giant foxtail; [7]): 30 | Foxtail, Giant plant response rating (0 to 100 scale, 0 is no effect, 100 is complete control) (giant foxtail; Postemergence, 500 g ai/ha): 70 | Plant response rating, Foxtail, Giant (giant foxtail; preemergence, 500 g ai/ha): 90 | Plant response rating, Pigweed (pigweed; [6]): 0 | Plant response rating, Pigweed (pigweed; [7]): 0 | Pigweed plant response rating (0 to 100 scale, 0 is no effect, 100 is complete control) (pigweed; Postemergence, 500 g ai/ha): 20 | Plant response rating, Pigweed (pigweed; preemergence, 500 g ai/ha): 0 | Plant response rating, Wheat (wheat): 0 | Wheat plant response rating (0 to 100 scale, 0 is no effect, 100 is complete control) (wheat): 0 | Plant response rating, Corn (corn): 0 | Corn plant response rating (0 to 100 scale, 0 is no effect, 100 is complete control) (corn): 30 | Plant response rating, Blackgrass (blackgrass): 0 | Blackgrass plant response rating (0 to 100 scale, 0 is no effect, 100 is complete control) (blackgrass): 10 | Plant response rating, Galium (galium): 50 | Galium plant response rating (0 to 100 scale, 0 is no effect, 100 is complete control) (galium): 60 | Plant response rating, Rice (rice): 0 | Plant response rating, Sedge, Umbrella (sedge, umbrella): 0 | Plant response rating, Ducksalad (ducksalad): 100 | Plant response rating, Barnyardgrass (barnyardgrass [2]): 80
